# Reference: patent publication US20250064874A1, “Mushroom Spore, Cannabinoid, and Specified Compositions” (priority 2023, published 2025)
# Assays:
# [1] = isolated or synthetic CBD; cited from earlier work
# [2] = test system: neuronal cultures exposed to glutamate; details: in vitro, isolated or synthetic CBD; cited from earlier work
# [3] = test system: shin splits, sciatica tight muscles, aching back pains, and circulation issues; assay: Example 12 case report: soaking body in magnesium sulfate with or without Reishi spore powder; assay type: in vivo, human; details: body soaked 30 minutes in 20 gallons of hot water, 1 cup Magnesium sulfate
# Procedure: The person tried soaking body in 1 cup of Magnesium sulfate with 20 gallons of hot water for 30 minutes. […] After 72 hours, the person soaked their body in 20 gallons of hot water comprising 1 cup of Magnesium sulfate in combination with 1000 mg of Reishi Mushroom Spore Powder, for 30 minutes.
SMILES,difference between treated animals and placebo [1],prevention of toxicity of glutamate [2],"improvement noticed (pain relief, sleep, mood, circulation, dexterity) [3]"
"C=C(C)[C@@H]1CCC(C)=C[C@H]1c1c(O)cc(CCCCC)cc1O [CBD, cannabidiol]",failed to find a difference,could be prevented to some extent,–
O=S(=O)([O-])[O-].[Mg+2] [Magnesium sulfate],–,–,slight improvement
